The values that follow come from patent US20100298348A1, “Method of Decreasing Ubiquitylated Protein Levels” (priority 2009, published 2010).

Experiment [1] has as its system APP. Nature of the experiment: Western blot of APP and C-terminal fragments in 3xTg-AD mouse brain. To be noted: 5 mg/kg/day. In kind it is in vivo. The method, then: To attempt to determine at what part in the Aβ processing/release pathway ST101 may be active, a series of Western blot analyses of brain extracts from the same mice were conducted. These Westerns blots examined intact APP as well as products of its post-translational processing and subsequent degradation.
FIG. 4 is a Western blot that depicts APP C-terminal fragments detected by antibody CT20 in the brains of ST101-treated (S) 3xTg-AD mice, relative to untreated (C) 3xTg mice-AD.
FIG. 5 is a Western blot that depicts APP and degradation fragments detected by antibody CT20 in the brains of ST101-treated (S) 3xTg-AD mice, relative to untreated (C) 3xTg-AD mice. “CT20” stands for full length APP species, and “Actin” stands for anti-beta-actin antibody as a protein loading control.
FIGS. 10A and 10B are Western blots that depict APP carboxy-terminal fragments detected by antibody CT20 in the brains of ST101-treated (T in FIG. 10A, S in FIG. 10B) 3xTg-AD mice, relative to untreated (C) 3xTg-AD mice. FIG. 10B is from a separate experiment that used the same brain extract used in the experiment for FIG. 10A. Animals were approximately 14.5 months old at sacrifice after 2.5 months of treatment with ST101 at 5 mg/kg/day in drinking water. * denotes a control animal with low levels of CTFs.
FIGS. 10C and 10D are Western blots that depict APP carboxy-terminal fragments detected by an APP C-terminal antibody (Eptitomics #: 15654-1) in the brains of ST101-treated (S) 3xTg-AD mice, relative to untreated (C) 3xTg-AD mice. FIG. 10D is a lighter exposure of the Western blot in FIG. 10C. Animals were approximately 14.5 months old at sacrifice after 2.5 months of treatment with ST101 at 5 mg/kg/day in drinking water.
Brain extracts from 12-month-old 3xTg-AD mice that had been treated with ST101 (S) at 5/mg/kg/day in drinking water over 2 months were analyzed in Western blots using a C-terminal APP antibody (CT-20 Calbiochem).
In general terms: A western blot detects proteins with antibodies after separation by electrophoresis.

Experiment [2] concerns huntingtin. Nature of the experiment: Western blot of pS13 huntingtin in 3xTg-AD mouse brain. To be noted: 3xTg-AD mice 12 months old, 5 mg/kg/day, 2 months; in the majority of cases. The class given is in vivo. The method, then:
In a first pilot experiment to explore the effect of ST101 on proteins that accumulate in neurodegenerative diseases other than AD, brain extracts from ST101-treated 3xTg-AD mice (S) and control mice (C) mice were analyzed by Western blotting with an antibody directed against huntingtin, specifically against a phospho-epitope around serine 13 (pS13 huntingtin). These extracts are from the same mice as those used in Examples 15 and 16.

The test system of experiment [3] is APP. Nature of the experiment: Western blot of APP fragments in cynomolgus monkey hippocampus, 9-month study. In kind it is in vivo. To be noted: male cynomolgus monkeys, 9 months oral. The method, then: Male cynomolgus monkeys were treated for 9 months with 0, 10, 30 or 100 mg/kg/day ST101 with once daily oral drug administration. Hippocampal brain samples were analyzed in Western blots and ELISAs for APP fragments and Aβ. […] Reductions in a ˜55-kDa fragment were also seen with treatment in these groups. Black outlines depict image level enhancement in Adobe Photoshop CS4, to better visualize weak signals. […] However, long exposures reveal the presence of the 17-kDa APP fragment only in treated monkeys (antibody CT20, Calbiochem). This fragment was not detected in either the 30 or 10 mg/kg/day ST101 groups. Error bars indicate SEM (standard error of the mean) and * indicates statistical significance versus control (p<0.05). (S: ST101-treated animals, versus C: control animals).

The subject of experiment [4] is beta-tubulin. Nature of the experiment: Western blot of beta-tubulin in cynomolgus monkey hippocampus. To be noted: cynomolgus monkeys of Example 19, hippocampal brain samples. In kind it is in vivo. An excerpt: The effects on tubulin were confirmed in the group of cynomolgus monkeys described in example 19.
Experiment [5] has as its system long-term potentiation (LTP). To be noted: cited from earlier work.
The mark [6] stands for this setting: 3xTg-AD mice ~12 months old, 2 months, antibody CT20.

`O=C1N=C2C=CC=CN2C12Cc1ccccc1C2` [ST101, spiro(imidazo[1,2-a]pyridin-2(3H)-one-3,2′-indan)]: the “AICD fragment (APP intracellular domain)” value in experiment [1] (3xTg-AD mice 12 months old, 2 months, antibody CT-20) is listed as “visible in brain extracts from ST101 treated mice (S) but not in control mice (C)”. For the same molecule, in experiment [1] (setting [6]), the “C83 C-terminal APP fragment” value is listed as “substantial decrease”; the “C99 C-terminal APP fragment” value is “substantial decrease”; the “full-length APP species, band shift” value was “slightly lowered molecular weight”; the “major APP degradation intermediate (~50 kDa)” value is listed as “disappearance or significant reduction”. For the same molecule, in experiment [1] (setting [6]), the “novel C-terminal APP fragment of about 17 kDa” value is given as “appearance”. In addition, in experiment [1] (3xTg-AD mice ~14.5 months old, 2.5 months), the “17 kDa APP fragment” value is reported as “lack of detection”. Moreover, the C99 fragment entry in experiment [1] (3xTg-AD mice ~14.5 months old, 2.5 months, Epitomics C-terminal APP antibody) is listed as “reduction”. Also, the “APP CTFs” value in experiment [1] (3xTg-AD mice ~14.5 months old, 2.5 months, antibody CT20) is “significant effect of reduction”. Also, the C83 fragment result in experiment [1] (3xTg-AD mice ~14.5 months old, 2.5 months, compared with 12-month old mice) is “not reduced to the same degree”. The “huntingtin protein levels (pS13 huntingtin)” value in experiment [2] is “significantly reduced”. For the same molecule, in experiment [3] (10 mg/kg/day), the “C83 APP fragment” value is “no differences” and the “C99 APP fragment” value is reported as “no differences”. The “17-kDa APP fragment” value in experiment [3] (10 mg/kg/day, antibody CT20) is “not detected”. Also, in experiment [3] (30 mg/kg/day), the “C83 APP fragment” value is recorded as “reductions”, the “C99 APP fragment” value was “reductions” and the “~55-kDa APP fragment” value is “Reductions”. Moreover, the “17-kDa APP fragment” value in experiment [3] (30 mg/kg/day, antibody CT20) is on record as “not detected”. Besides, in experiment [3] (100 mg/kg/day), the “C83 APP fragment” value is “reductions”, the “C99 APP fragment” value is reported as “reductions” and the “~55-kDa APP fragment” value is “Reductions”. Besides, the “17-kDa APP fragment” value in experiment [3] (100 mg/kg/day, antibody CT20, long exposures) is on record as “presence”. Besides, in experiment [4], the beta-tubulin degradation products entry is on record as “increase”. For the same molecule, in experiment [5], the “long-term potentiation (LTP)” value is reported as “efficacy in increasing long-term potentiation (LTP)”.
